Results published in publication PMC8950173 (Pharmaceuticals, 2022).

Legend:
human recombinant HDAC2 = molecular target: T1, human recombinant HDAC2 (Homo sapiens, UniProt Q92769); assay: Inhibition assay HDAC2 (fluorogenic substrate ZMAL); type: biochemical; settings: 60 min preincubation at 25 °C
T1 construct: purchased BPS Bioscience Inc. 50052
Method: (§1) In vitro inhibitory activities against HDAC1−3 and HDAC6 were measured as previously published with minor modifications. […] Subsequently, 50 µL trypsin solution (0.4 mg/mL trypsin in buffer: 50 mM Tris−HCl, pH = 8.0, 100 mM NaCl) was added, followed by additional 30 min of incubation at 37 °C. […] All compounds were tested at least twice in duplicates.

[1] = molecular target: human recombinant HDAC3/NcoR2 (Homo sapiens, UniProt O15379); assay: Inhibition assay HDAC3 (fluorogenic substrate ZMAL); type: biochemical; settings: HDAC1 over HDAC3, from IC50 values
Chain of human recombinant HDAC3/NcoR2 (O15379 whole entry): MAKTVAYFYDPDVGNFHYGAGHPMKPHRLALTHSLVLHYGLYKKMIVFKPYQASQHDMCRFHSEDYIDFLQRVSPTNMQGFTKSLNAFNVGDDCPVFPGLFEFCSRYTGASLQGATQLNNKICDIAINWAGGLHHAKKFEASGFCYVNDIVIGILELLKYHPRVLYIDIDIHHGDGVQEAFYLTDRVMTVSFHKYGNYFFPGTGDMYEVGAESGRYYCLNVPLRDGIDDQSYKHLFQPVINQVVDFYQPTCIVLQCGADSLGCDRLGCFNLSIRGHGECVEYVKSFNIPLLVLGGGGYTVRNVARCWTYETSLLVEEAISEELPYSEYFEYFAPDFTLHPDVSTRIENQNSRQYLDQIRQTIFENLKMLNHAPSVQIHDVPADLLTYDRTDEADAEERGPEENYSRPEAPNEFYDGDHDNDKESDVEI
Chain of human recombinant HDAC3/NcoR2 (Q9Y618 395-489 partner limits assumed): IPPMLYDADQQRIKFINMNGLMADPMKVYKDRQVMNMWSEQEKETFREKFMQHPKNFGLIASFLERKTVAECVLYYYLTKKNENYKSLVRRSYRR
Method: as §1

[2] = Dynamic PET/MR scan, brain uptake, baseline; type: in vivo
Method: (§2) For the time of the experiments, female CD-1 mice (n = 6; 8–15 weeks; 29–43 g) were kept in a dedicated climatic chamber with free access to water and food under a 12:12 h dark:light cycle at a constant temperature (24 °C). The animals were anaesthetized (Anaesthesia Unit U-410, agntho’s, Lidingö, Sweden) with isoflurane (2.0%, 300 mL/min) delivered in a 60% oxygen/40% air mixture (Gas Blender 100 Series, MCQ instruments, Rome, Italy) and their body temperature maintained at 37 °C with a thermal bed system. For baseline studies [^18F]BA3 was injected into the tail vein (n = 2; 6.0 ± 0.6 MBq in 150 µL isotonic saline; 9.2 ± 0.7 nmol/kg; Am: 21 GBq/μmol, EOS) followed by a dynamic 60 min PET/MR scan (Mediso nanoScan®, Budapest, Hungary). Permeability-glycoprotein efflux transporter studies consisted in pre-treatment via i.v. injection of cyclosporine A (50 mg/kg in NaCl/DMSO/kolliphor, 7:1:2, v/v; n = 2) or of vehicle (NaCl/DMSO/kolliphor, 7:1:2, v/v; n = 2) 30 min prior to [^18F]BA3 (6.0 ± 0.9 MBq; 4.9 ± 0.7 nmol/kg; Am: 32–37 GBq/μmol, EOS). Each PET image was corrected for random coincidences, dead time, scatter and attenuation (AC), based on a whole body (WB) MR scan. The reconstruction parameters for the list mode data were 3D-ordered subset expectation maximization (OSEM), 4 iterations, 6 subsets, energy window: 400–600 keV, coincidence mode: 1–5, ring difference: 81. The mice were positioned prone in a special mouse bed (heated up to 37 °C), with the head fixed to a mouth piece for the anaesthetic gas supply with isoflurane in 40% air and 60% oxygen. The PET data were collected by a continuous WB scan during the entire investigation. Following the 60 min PET scan a T1 weighted WB gradient echo sequence (TR/TE: 20/6.4 ms, NEX: 1, FA: 25, FOV: 64 × 64 mm, Matrix: 128 × 128, STh: 0.5 mm) was performed for AC and anatomical orientation. […]. The respective brain regions were identified using the mouse brain atlas template Ma-Benveniste-Mirrione-FDG. The activity data are expressed as mean SUV of the overall ROI.

[3] = molecular target: T2, P-glycoprotein (P-gp) efflux transporter (Mus musculus, UniProt P21447); assay: P-gp efflux transporter PET study with cyclosporine A pre-treatment; type: in vivo; settings: for initial brain uptake: n = 2
T2 construct: from tissue; host or cells: living CD-1 mice, brain / blood-brain barrier
T2 sequence (P21447 whole entry): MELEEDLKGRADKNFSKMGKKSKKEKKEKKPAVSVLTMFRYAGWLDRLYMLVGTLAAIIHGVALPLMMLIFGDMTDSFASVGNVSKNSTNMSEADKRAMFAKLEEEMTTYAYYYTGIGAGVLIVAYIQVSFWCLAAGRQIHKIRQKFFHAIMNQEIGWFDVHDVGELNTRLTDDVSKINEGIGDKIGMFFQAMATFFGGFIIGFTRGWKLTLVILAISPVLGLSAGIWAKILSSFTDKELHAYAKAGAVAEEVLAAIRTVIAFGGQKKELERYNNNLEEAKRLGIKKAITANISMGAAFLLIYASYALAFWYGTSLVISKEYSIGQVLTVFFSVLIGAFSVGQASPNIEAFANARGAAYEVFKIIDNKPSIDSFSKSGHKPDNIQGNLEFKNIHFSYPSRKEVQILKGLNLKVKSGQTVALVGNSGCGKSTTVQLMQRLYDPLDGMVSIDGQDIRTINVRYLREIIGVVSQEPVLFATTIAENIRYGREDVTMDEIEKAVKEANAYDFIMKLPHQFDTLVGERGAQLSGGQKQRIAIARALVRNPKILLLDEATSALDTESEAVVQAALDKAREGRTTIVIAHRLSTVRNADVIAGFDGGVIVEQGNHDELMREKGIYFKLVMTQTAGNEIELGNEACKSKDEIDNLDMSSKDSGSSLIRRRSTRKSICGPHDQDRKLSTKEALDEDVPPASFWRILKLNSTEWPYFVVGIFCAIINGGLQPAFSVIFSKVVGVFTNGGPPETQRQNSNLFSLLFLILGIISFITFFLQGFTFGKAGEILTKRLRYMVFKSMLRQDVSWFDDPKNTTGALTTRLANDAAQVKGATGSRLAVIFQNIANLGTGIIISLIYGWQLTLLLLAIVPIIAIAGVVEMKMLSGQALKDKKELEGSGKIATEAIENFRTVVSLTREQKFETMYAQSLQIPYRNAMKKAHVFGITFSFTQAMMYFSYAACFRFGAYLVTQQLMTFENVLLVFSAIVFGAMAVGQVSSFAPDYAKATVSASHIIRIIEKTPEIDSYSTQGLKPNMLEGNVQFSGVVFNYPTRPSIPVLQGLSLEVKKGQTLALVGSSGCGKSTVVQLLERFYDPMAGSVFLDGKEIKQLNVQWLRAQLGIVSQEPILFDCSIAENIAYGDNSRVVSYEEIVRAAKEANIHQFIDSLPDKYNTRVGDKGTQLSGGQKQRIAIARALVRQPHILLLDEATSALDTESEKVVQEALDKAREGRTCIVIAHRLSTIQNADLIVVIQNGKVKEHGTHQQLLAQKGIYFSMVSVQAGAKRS
Method: as §2

human recombinant HDAC6 = molecular target: T3, human recombinant HDAC6 (Homo sapiens, UniProt Q9UBN7); assay: Inhibition assay HDAC6 (fluorogenic substrate ZMAL); type: biochemical; settings: from IC50 values
T3 construct: purchased BPS Bioscience Inc. 50006
T3 sequence (Q9UBN7 1-1215): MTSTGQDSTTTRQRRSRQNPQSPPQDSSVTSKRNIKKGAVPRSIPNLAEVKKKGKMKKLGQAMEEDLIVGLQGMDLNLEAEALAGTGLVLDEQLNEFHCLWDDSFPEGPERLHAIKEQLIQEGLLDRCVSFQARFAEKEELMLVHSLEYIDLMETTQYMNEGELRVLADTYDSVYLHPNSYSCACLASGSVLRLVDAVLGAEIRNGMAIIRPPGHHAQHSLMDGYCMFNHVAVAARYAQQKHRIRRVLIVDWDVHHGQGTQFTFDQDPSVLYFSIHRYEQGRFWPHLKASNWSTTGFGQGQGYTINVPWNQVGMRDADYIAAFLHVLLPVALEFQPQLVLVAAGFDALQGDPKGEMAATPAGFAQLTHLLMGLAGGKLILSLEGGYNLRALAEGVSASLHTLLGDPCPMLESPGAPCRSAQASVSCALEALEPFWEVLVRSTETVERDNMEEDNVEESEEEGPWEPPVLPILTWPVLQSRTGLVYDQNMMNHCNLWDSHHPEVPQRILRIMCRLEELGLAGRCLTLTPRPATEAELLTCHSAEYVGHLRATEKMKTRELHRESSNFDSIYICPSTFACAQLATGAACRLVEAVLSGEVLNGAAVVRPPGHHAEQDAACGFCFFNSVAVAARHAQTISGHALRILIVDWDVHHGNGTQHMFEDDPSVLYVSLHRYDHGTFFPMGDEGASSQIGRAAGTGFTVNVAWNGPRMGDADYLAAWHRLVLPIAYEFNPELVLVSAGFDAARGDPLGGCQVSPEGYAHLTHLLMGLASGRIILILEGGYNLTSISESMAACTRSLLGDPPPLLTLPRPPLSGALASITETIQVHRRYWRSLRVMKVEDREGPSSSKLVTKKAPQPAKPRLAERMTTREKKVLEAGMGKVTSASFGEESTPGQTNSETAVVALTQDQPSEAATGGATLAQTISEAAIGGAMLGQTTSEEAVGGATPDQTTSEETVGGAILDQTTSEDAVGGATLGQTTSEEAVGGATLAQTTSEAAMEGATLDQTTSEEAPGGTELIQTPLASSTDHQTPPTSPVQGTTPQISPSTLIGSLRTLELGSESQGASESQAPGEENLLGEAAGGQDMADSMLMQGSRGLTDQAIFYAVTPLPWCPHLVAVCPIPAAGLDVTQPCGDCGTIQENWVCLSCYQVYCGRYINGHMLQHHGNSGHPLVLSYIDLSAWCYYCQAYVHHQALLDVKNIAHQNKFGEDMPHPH
Method: as §1

T1 sequence (Q92769 whole entry): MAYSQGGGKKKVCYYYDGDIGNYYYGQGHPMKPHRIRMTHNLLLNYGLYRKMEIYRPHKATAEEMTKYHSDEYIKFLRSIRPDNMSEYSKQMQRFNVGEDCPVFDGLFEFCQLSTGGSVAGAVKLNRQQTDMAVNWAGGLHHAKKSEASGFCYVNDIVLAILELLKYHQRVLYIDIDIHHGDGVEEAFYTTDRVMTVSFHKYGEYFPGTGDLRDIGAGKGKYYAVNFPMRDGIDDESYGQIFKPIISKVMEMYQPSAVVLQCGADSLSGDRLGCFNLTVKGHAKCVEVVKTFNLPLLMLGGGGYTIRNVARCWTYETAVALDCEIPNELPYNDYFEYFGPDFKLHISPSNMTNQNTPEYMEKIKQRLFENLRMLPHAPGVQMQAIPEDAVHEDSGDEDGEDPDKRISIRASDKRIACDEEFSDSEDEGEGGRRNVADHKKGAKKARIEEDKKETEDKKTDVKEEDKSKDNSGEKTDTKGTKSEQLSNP

CC([18F])C(=O)NCc1ccc(C(=O)Nc2cc(-c3ccsc3)ccc2N)cc1 (stereo not shown) [[^18F]BA3]
IC50 (human recombinant HDAC2): 39.9 ± 3.2 nM
specificity ratio (HDAC1/HDAC3) [1]: > 230
brain peak standardized uptake value ([2]; at 0.8 min, i.v.): ~ 0.16 SUV
brain uptake plateau ([2]; at 15 min, i.v.): ~ 0.22 SUV
brain uptake after washout ([2]; at 60 min after i.v. administration): ~ 0.16 SUV
P-gp substrate status ([3]; concluded from cyclosporine A pre-administration): substrate of P-gp
increase of initial brain uptake by cyclosporine A ([3]; cyclosporine A vs vehicle pre-administration): about factor two
initial brain uptake ([3]; pre-administration of cyclosporine A 50 mg/kg i.v. 30 min before tracer): 0.42 SUV
initial brain uptake ([3]; pre-administration of vehicle 30 min before tracer): 0.18 SUV
specificity ratio HDAC1 over HDAC6 (human recombinant HDAC6): > 2080
